Test results reported in patent publication US20090215638A1, “ANTIBIOTIC SUSCEPTIBILITY AND VIRULENCE FACTOR DETECTION IN PSEUDOMONAS AERUGINOSA” (priority 2005, published 2009).

Key:
[1] = test system: P. aeruginosa clinical isolates; experiment: Antibiotic susceptibility testing, NEG MIC Type 30 panel on MicroScan WalkAway-96 SI, MICs interpreted according to NCCLS guidelines; format: cell-based, Pseudomonas aeruginosa; conditions: for 60 MIC: MIC of resistant isolates
Excerpt: The wild-type reference strain P. aeruginosa PAO1 was obtained from the ATCC (AT47085). The other P. aeruginosa strains were collected from patients at the Robert Bosch Hospital in Stuttgart, Germany. They were recovered from respiratory samples (n=51), swabs (n=5), urine (n=2) and feces (n=2). All isolates were identified with the API 20NE system (bioMerieux, Marcy l'Etoile, France) and the NEG Breakpoint Combo Type 30 panel on the MicroScan WalkAway ®-96 SI system (Dade Behring, Liederbach, Germany). All bacterial strains were either routinely cultured at 37° C. on Mueller-Hinton (MH) agar or grown in Luria Bertani broth (LB).
The antibiotic susceptibility was determined with the NEG MIC Type 30 panel on the MicroScan WalkAway ®-96 SI system. The MICs were interpreted according to the NCCLS guidelines.
The test collective of P. aeruginosa isolates was recovered from three intensive care units (ICU) or other hospital wards as far as an unusual multidrug resistance was observed. […] 4.

[2] = test system: P. aeruginosa clinical isolates; set-up: species or system Pseudomonas aeruginosa; conditions: predicted from mutations and resistance genes found by array in 60 isolates
Procedure: Chromosomal DNA was extracted with the QIAmp DNA Mini Kit, plasmid DNA with the QIAprep Spin Miniprep Kit according to manufacturer's instructions (Qiagen, Hilden, Germany). A set of 4 multiplex PCRs (Tab. 1) was set up to amplify the sequences of interest from the chosen genes. The PCRs were carried out with the Advantage®-GC Genomic PCR Kit (BD Bioscience, San Jose, USA) according to manufacturer's instructions, for fluorescence labeling 5 μl of each 1 mM dNTP was used, for dCTP a 2:3 mixture of Cy3-dCTP and dCTP. The cycle reactions consisted of 30 cycles of 30 s at 95° C., 30 s at 55° C. and 1 min at 72° C. PCR products were purified with the QIAquick PCR Purification Kit (Qiagen, Hilden, Germany) according to the manufacturer's instructions. The quality and sizes of PCR products were checked on a lab-on-a-chip Bioanalyzer 2100 electrophoresis with the DNA 1500 LabChip kit (Agilent, Böblingen, Germany). Sequencing was performed on the ABI PRISM® 310 Genetic Analyzer using the BigDyee® Terminator Cycle Sequencing Kit v1.1 (Applied Biosystems, Foster City, USA). The manufacturer's protocol was followed using the same primers as for the multiplex PCRS. […]
The oligonucleotide arrays were scanned with a arrayWoRx Biochip Reader (Applied Precision, Marlborough, UK). The scanner settings for fluorescence signal acquisition were set to “High Precision” and 0.2 s acquisition time. […]

[3] = Table 3, test collective of 60 clinical isolates
[4] = Table 6, phenotypic resistance rate, 60 clinical isolates
[5] = Table 6, phenotypic resistance, 60 clinical isolates

With CC(C)(O/N=C(\C(=O)N[C@@H]1C(=O)N2C(C(=O)[O-])=C(C[n+]3ccccc3)CS[C@H]12)c1csc(N)n1)C(=O)O [Ceftazidim, ceftazidime] the “% of resistant isolates out of 60” value [1, 3] was 33%, the “Number of resistant isolates out of 60” value [1, 3] was 20 and the “60 MIC” value ([1]; Table 6) was over 16 µg/mL. The “% of resistant isolates out of 60” value [1, 4] was 33% and the “Number of resistant isolates out of 60” value [1, 5] was 20.
With C[C@@H](O)[C@H]1C(=O)N2C(C(=O)O)=C(SCCN=CN)C[C@H]12 [Imipenem, imipenem] the susceptibility rate ([1]; test collective of isolates) was “less than 55%”.
With NC[C@H]1O[C@H](O[C@H]2[C@H](O)[C@@H](O[C@H]3O[C@H](CO)[C@@H](O)[C@H](N)[C@H]3O)[C@H](N)C[C@@H]2N)[C@H](N)C[C@@H]1O [Tobramycin, tobramycin] the “Susceptibility profile, Isolate 1” value ([1]; first of 3 consecutive isolates from the same patient) was “susceptible”, the “Susceptibility profile, Isolate 3” value ([1]; last of 3 consecutive isolates from the same patient, within three weeks) was “resistance” and the “Susceptibility profile, Isolate 2” value ([1]; second of 3 consecutive isolates from the same patient, collected one week after the first) was “susceptible”.
With colistin the “% of resistant isolates out of 60” value [1, 3] was 0%, the “Number of resistant isolates out of 60” value [1, 3] was 0 and the “% of resistant isolates out of 60” value [1, 4] was 0%. The “Number of resistant isolates out of 60” value [1, 5] was 0, the resistance rate ([1]; test collective of isolates) was 0% and the “Cumulative resistance predicttion deduced from array” value [2] was 0%.
With gentamicin the “% of resistant isolates out of 60” value [1, 3] was 37%, the “Number of resistant isolates out of 60” value [1, 3] was 22 and the “60 MIC” value ([1]; Table 6) was over 8 µg/mL. The “% of resistant isolates out of 60” value [1, 4] was 37%, the “Number of resistant isolates out of 60” value [1, 5] was 22 and the “Cumulative resistance predicttion deduced from array” value [2] was 45%.
piperacillin/tazobactam was tested, and the “% of resistant isolates out of 60” value [1, 3] was 33%, the “Number of resistant isolates out of 60” value [1, 3] was 20 and the “60 MIC” value ([1]; Table 6) was over 64 µg/mL. The “% of resistant isolates out of 60” value [1, 4] was 33% and the “Number of resistant isolates out of 60” value [1, 5] was 20.
